Holding throughout (assay type): nucleic-acid assay
In assay [1] the test system is Nucleic Acid. Description: Binding affinity to Salmon sperm DNA in phosphate buffer assessed as change in melting temperature. The following applies: Oncorhynchus.
The subject of assay [2] is Nucleic Acid. Kind of assay: Binding affinity to Poly(dA.dT)2 DNA in phosphate buffer assessed as change in melting temperature.
Assay [3] concerns Nucleic Acid. Description: Binding affinity to Poly(dA).Poly(dT) DNA in MES buffer assessed as change in melting temperature.

In ChEMBL document CHEMBL1153695, “Asymmetrical diaromatic guanidinium/2-aminoimidazolinium derivatives: synthesis and DNA affinity” (J Med Chem, 2009) one finds ΔTm data, which are given here for 30 compounds.

Take `N=C(N)Nc1ccc(N2CCN(c3ccc(N)cc3)CC2)cc1`: the thermal shift (ΔTm) in the assay with Nucleic Acid [1] was found to be 2 °C.

Regarding `N=C(N)Nc1ccc(CCc2ccc(N=C3NCCN3)cc2)cc1`, the ΔTm is 8 °C in the assay with Nucleic Acid [1], 16 °C with Nucleic Acid [2] and 29 °C with Nucleic Acid [3].

On to `N=C(N)Nc1ccc(Nc2ccc(N=C3NCCN3)cc2)cc1`, for which the results for the ΔTm in the assay with Nucleic Acid [1], in the assay with Nucleic Acid [2] and with Nucleic Acid [3] were 12 °C, 17.5 °C and 35.1 °C, respectively.

For `N=C(N)Nc1ccc(Cc2ccc(N=C3NCCN3)cc2)cc1`, the ΔTm was determined as 6 °C in the assay on Nucleic Acid [1], 6 °C with Nucleic Acid [2] and 17.2 °C in the assay on Nucleic Acid [3].

As for `Nc1ccc(NC(=O)Nc2ccc(N=C3NCCN3)cc2)cc1`, the shift in melting temperature (ΔTm) in the assay on Nucleic Acid [1] is 4 °C.

Consider `N=C(N)Nc1ccc(Sc2ccc(N=C3NCCN3)cc2)cc1`, for which the ΔTm in the assay on Nucleic Acid [1] was determined as 7 °C; with Nucleic Acid [2], 9 °C; in the assay with Nucleic Acid [3] it was 23 °C.

`N=C(N)Nc1ccc(NC(=O)Nc2ccc(N)cc2)cc1`: the ΔTm in the assay with Nucleic Acid [1] turned out to be 2 °C.

Take `N=C(N)Nc1ccc(NC(=O)Nc2ccc(N=C3NCCN3)cc2)cc1`: the values for the shift in melting temperature (ΔTm) in the assay with Nucleic Acid [1], in the assay with Nucleic Acid [2] and in the assay on Nucleic Acid [3] were 11.5 °C, 14 °C and 30 °C, respectively.

Turning to `N=C(N)Nc1ccc(Nc2ccc(N)cc2)cc1`, in the assay with Nucleic Acid [1], the ΔTm worked out at 2 °C.

In the case of `Nc1ccc(Cc2ccc(N=C3NCCN3)cc2)cc1`, in the assay on Nucleic Acid [1], the ΔTm was found to be 3 °C.

Regarding `N=C(N)Nc1ccc(Cc2ccc(N)cc2)cc1`, the ΔTm in the assay with Nucleic Acid [1] stood at 3 °C.

`N=C(N)Nc1ccc(Oc2ccc(N=C3NCCN3)cc2)cc1`: the ΔTm in the assay with Nucleic Acid [1] came to 7 °C; in the assay on Nucleic Acid [2] it was 10 °C; in the assay on Nucleic Acid [3], 25.3 °C.

On to `N=C(N)Nc1ccc(C(=O)c2ccc(N)cc2)cc1`, for which, in the assay with Nucleic Acid [1], the ΔTm was determined as 0 °C.

Turning to `N=C(N)Nc1ccc(N2CCN(c3ccc(N=C4NCCN4)cc3)CC2)cc1`, the ΔTm stood at 9 °C with Nucleic Acid [1], 15 °C with Nucleic Acid [2] and 31.1 °C in the assay with Nucleic Acid [3].

With `N=C(N)Nc1ccc(CCc2ccc(N)cc2)cc1`, the ΔTm in the assay on Nucleic Acid [1] turned out to be 0 °C.

`N=C(N)Oc1ccc(Cc2ccc(OC(=N)N)cc2)cc1`: the ΔTm with Nucleic Acid [1] was found to be 4 °C.

As for `Cn1cc(NC(=O)c2cc(NC(=O)CNC(=N)N)cn2C)cc1C(=O)NCCC(=N)N`, the shift in melting temperature (ΔTm) in the assay with Nucleic Acid [2] is 39 °C.

As for `Nc1ccc(Sc2ccc(N=C3NCCN3)cc2)cc1`, the ΔTm in the assay with Nucleic Acid [1] was determined as 0 °C.

For the compound `N=C(N)Oc1ccc(Cc2ccc(O)cc2)cc1`, the ΔTm with Nucleic Acid [1] is 2 °C.

Turning to `Nc1ccc(Oc2ccc(N=C3NCCN3)cc2)cc1`, the ΔTm in the assay on Nucleic Acid [1] came to 0 °C.

In the case of `N=C(N)Nc1ccc(C(=O)c2ccc(N=C3NCCN3)cc2)cc1`, the results for the shift in melting temperature (ΔTm) in the assay with Nucleic Acid [1], with Nucleic Acid [2] and in the assay on Nucleic Acid [3] were 8 °C, 15 °C and 32 °C, respectively.

As for `N=C(N)Oc1ccc(Oc2ccc(OC(=N)N)cc2)cc1`, the ΔTm with Nucleic Acid [1] amounted to 6 °C.

For `N=C(N)Oc1ccc(Sc2ccc(OC(=N)N)cc2)cc1`, the shift in melting temperature (ΔTm) in the assay with Nucleic Acid [1] turned out to be 5 °C.

Consider `N=C(N)Nc1ccc(Oc2ccc(N)cc2)cc1`, for which the shift in melting temperature (ΔTm) in the assay with Nucleic Acid [1] turned out to be 2 °C.

Consider `N=C(N)Oc1ccc(Oc2ccc(O)cc2)cc1`, for which the ΔTm in the assay with Nucleic Acid [1] was 4 °C.

Regarding `N=C(N)Nc1ccc(Sc2ccc(N)cc2)cc1`, the ΔTm with Nucleic Acid [1] came to 2 °C.

Regarding `Nc1ccc(CCc2ccc(N=C3NCCN3)cc2)cc1`, in the assay with Nucleic Acid [1], the shift in melting temperature (ΔTm) stood at 0 °C.

In the case of `Nc1ccc(N2CCN(c3ccc(N=C4NCCN4)cc3)CC2)cc1`, the shift in melting temperature (ΔTm) in the assay on Nucleic Acid [1] was determined as 1 °C.

In the case of `N=C(N)Oc1ccc(Sc2ccc(O)cc2)cc1`, the ΔTm with Nucleic Acid [1] was found to be 2 °C.

On to `Nc1ccc(Nc2ccc(N=C3NCCN3)cc2)cc1`, for which, in the assay on Nucleic Acid [1], the thermal shift (ΔTm) was found to be 2 °C.

A word on the ΔTm: it is the change in melting temperature against a reference sample.
